Read-outs that look alike come from different tables or passages of the source.
Target: T1, MBP-HTT(1-89)Q46-His(6×) (“Exon1-Q46”) protein aggregates (Homo sapiens, UniProt P42858, INS38QQQQQQQQQQQQQQQQQQQQQQQQQ)
T1 construct: MBP-HTT(1-89)Q46-His(6×); His(6×) (C); made in house
Assay: Exon1-Q46 Radioligand Binding Assay
Method: Exon1-Q46 Radioligand Binding Assay
For experiments 30 μM MBP-Exon1-Q46 was incubated with 150 μg/mL thrombin in assay buffer (150 mM NaCl, 50 mM Tris pH 8.0) and 2 mM CaCl2 for 16 hours at 37° C. Aggregated Exon1-Q46 was pelleted by centrifugation for 5 minutes at 13,000 rpm in a bench top centrifuge and re-dissolved in the same volume of assay buffer. […] For the RBA, Q46 protein aggregates and test compounds were pre-incubated in assay buffer for 20 minutes at room temperature, in 100 μL/well in a 96-well plate (pp, round bottom). Then, ligand was added in 50 μL/well and incubated for 60 minutes at 37° C. Final assay concentrations were […] test compound, 1 μM Exon1-Q46 protein (equivalent monomer concentration) and 0.3 nM ligand [^3H3-methyl]-5-((5-methoxypyridin-2-yl)methoxy)-2-(pyrazin-2-yl)benzo[d]oxazole. Samples were transferred onto GF/B filter plates and washed 2× with 200 μL PBS using a Filtermate Harvester. After drying filter plates for 1 hour at 55° C., the back of the plates were sealed with foil and 30 μL/well scintillation fluid (Packard MicroScint 40) added, incubated for 15 minutes in the dark and counted in a MicroBeta reader. […] IC50 values were determined with a sigmoidal inhibition model with four variables (top, bottom, slope, IC50) in a global fit using the normalized replicate data.

[1] = displacement of 0.3 nM [3H3-methyl]-5-((5-methoxypyridin-2-yl)methoxy)-2-(pyrazin-2-yl)benzo[d]oxazole from 1 μM aggregated Exon1-Q46, 60 minutes at 37° C., read-out: Potency Range (IC50)

T1 sequence (P42858 with tags, fused parts or gaps with the stated changes limits assumed): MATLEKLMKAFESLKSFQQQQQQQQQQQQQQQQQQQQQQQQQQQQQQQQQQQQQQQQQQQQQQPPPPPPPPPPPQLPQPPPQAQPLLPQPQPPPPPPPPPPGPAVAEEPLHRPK

IC50 [1]	SMILES	IC50
< 0.1 µM	O=C(CCCn1c(=O)c2cccn2c2ccc(Br)cc21)N1CCCCC1 [Example 29-5]	
< 0.1 µM	Cn1ncc2c(=O)n(CCC(=O)Nc3ccc(F)cc3F)c3cc(F)c(F)cc3c21 [Example 21-1]	
< 0.1 µM	O=C(CCCn1c(=O)c2cccn2c2ccccc21)N1CCCCC1 [Example 5-18]	
< 0.1 µM	[2H]C(C(=O)Nc1ccc(F)cc1F)C([2H])([2H])n1c(=O)c2cnn(C)c2c2ccc(F)cc21 (centres unmarked) [Example 20-1]	
< 0.1 µM	Cc1ccnc(NC(=O)CCn2c(=O)c3ccnn3c3ccc(F)cc32)c1 [Example 8-11]	
< 0.1 µM	COc1ccc(NC(=O)CCCn2c(=O)c3cccn3c3cnccc32)cc1 [Example 6-2]	
< 0.1 µM	O=C(CCn1c(=O)c2ccnn2c2ccc(F)cc21)Nc1ccncc1F [Example 8-7]	
< 0.1 µM	Cn1ncc2c(=O)n(CCC(=O)N3CCc4ccccc4C3)c3cc(F)ccc3c21 [Example 9-14]	
< 0.1 µM	Cc1ccc(C(=O)NCCCn2c(=O)c3cccn3c3ccc(F)cc32)cc1 [Example 12-2]	
< 0.1 µM	O=C(CCn1c(=O)c2ccnn2c2ccc(F)cc21)Nc1ccc(F)cn1 [Example 8-12]	
< 0.1 µM	O=C(CCCn1c(=O)c2cccn2c2cccnc21)NC1CCCCCC1 [Example 4-10]	
< 0.1 µM	O=C(CCn1c(=O)c2cccn2c2ccc(F)cc21)N1CCc2ccncc21 [Example 3-57]	
< 0.1 µM	COc1cccc(NC(=O)CCCn2c(=O)c3cccn3c3cccnc32)c1 [Example 4-5]	
< 0.1 µM	O=c1c2cccn2c2ccc(F)cc2n1CCCN1CCc2ccccc2C1 [Example 13-2]	
< 0.1 µM	COc1ccc(NC(=O)CCn2c(=O)c3cnn(C)c3c3ccc(F)cc32)c(F)c1 [Example 9-20]	
< 0.1 µM	Cn1ncc2c(=O)n(CCC(=O)Nc3cc(Cl)ccc3F)c3cc(F)ccc3c21 [Example 9-15]	
< 0.1 µM	O=C(CCn1c(=O)c2ccnn2c2ccc(F)cc21)N1Cc2cccnc2C1 [Example 8-8]	
< 0.1 µM	Cn1ncc2c(=O)n(CCC(=O)N3CCc4cnccc43)c3cc(F)ccc3c21 [Example 9-10]	
< 0.1 µM	COc1ccnc(NC(=O)CCCn2c(=O)c3cccn3c3ncccc32)c1 [Example 4-4]	
< 0.1 µM	Cc1ccc(NC(=O)CCCn2c(=O)c3cccn3c3ncccc32)cc1 [Example 4-1]	

IC50 [1]	SMILES	IC50
< 0.1 µM	Cc1ccc(C(=O)NCCn2c(=O)c3cccn3c3ccc(F)cc32)cc1 [Example 12-1, N-[2-(7-Fluoro-4-oxo-pyrrolo[1,2-a]quinoxalin-5-yl)ethyl]-4-methyl-benzamide]	
< 0.1 µM	Cn1ncc2c(=O)n(CCC(=O)Nc3cccc(F)c3)c3cc(F)ccc3c21 [Example 9-30]	
< 0.1 µM	COc1ccc(NC(=O)CCCn2c(=O)c3nccn3c3ccc(F)cc32)nc1 [Example 5-14]	
< 0.1 µM	Cn1ccc2c3ccc(F)cc3n(CCC(=O)Nc3ccc(F)cc3F)c(=O)c21 [Example 22-1, N-(2,4-Difluorophenyl)-3-{7-fluoro-3-methyl-4-oxo-3H,4H,5H-pyrrolo[2,3-c]quinolin-5-yl}propanamide]	
< 0.1 µM	O=C(CCn1c(=O)c2cc(F)cn2c2ccc(F)cc21)N1Cc2ccncc2C1 [Example 3-64]	
< 0.1 µM	Cn1ncc2c(=O)n(CCC(=O)N3CCc4ccncc43)c3cc(F)ccc3c21 [Example 9-9]	
0.1 to 0.5 µM	Cc1ccc(NC(=O)CCNc2cc(F)ccc2-n2cccn2)cc1 [Example 3-69]	
< 0.1 µM	Cc1ccc(NC(=O)CCCn2c(=O)c3nccn3c3ccc(F)cc32)cc1 [Example 5-12]	
< 0.1 µM	[2H]C([2H])([2H])n1cc2c(=O)n(CCC(=O)Nc3ccc(F)cc3F)c3cc(F)ccc3c2n1 [Example 19-4]	
< 0.1 µM	Cn1ncc2c(=O)n(CCC(=O)N3Cc4ccccc4C3)c3cc(F)ccc3c21 [Example 9-8]	
< 0.1 µM	Cc1cccc(NC(=O)CCn2c(=O)c3cnn(C)c3c3ccc(F)cc32)c1F [Example 9-25]	
< 0.1 µM	O=C(CCCn1c(=O)c2cccn2c2ccc(F)cc21)N1CCOCC1 [Example 29-1]	
< 0.1 µM	Cn1nc(C(=O)NCCn2c(=O)c3cccn3c3ccc(F)cc32)ccc1=O [Example 15-1]	
< 0.1 µM	COc1cccc(NC(=O)CCCn2c(=O)c3cccn3c3cnccc32)c1 [Example 6-3]	
< 0.1 µM	O=C(CCn1c(=O)c2ccnn2c2ccc(F)cc21)Nc1ccccc1F [Example 8-2]	
< 0.1 µM	COc1ccc(NC(=O)CCCn2c(=O)c3cccn3c3ccccc32)cc1 [Example 5-2]	
< 0.1 µM	COc1ccc(NC(=O)CCCn2c(=O)c3cccn3c3ccc(OC)cc32)nc1 [Example 5-9]	
< 0.1 µM	COc1ccnc(NC(=O)CCCn2c(=O)c3cccn3c3cnccc32)c1 [Example 6-5]	
< 0.1 µM	Cn1ncc2c(=O)[nH]c3cc(F)ccc3c21 [Example 9-22]	
< 0.1 µM	Cn1ncc2c(=O)n(CCC(=O)Nc3ccc(Cl)cc3F)c3cc(F)ccc3c21 [Example 9-16]	

Continued, molecule first:

SMILES	IC50 [1]	IC50
Cn1ncc2c(=O)n(CCC(=O)Nc3ccc(F)cc3F)c3c[c]([Sn]([CH3])([CH3])[CH3])ccc3c21 [Example 26-1, N-(2,4-difluorophenyl)-3-[1-methyl-4-oxo-7-(trimethylstannyl)-1H,4H,5H-pyrazolo [4,3-c]quinolin-5-yl]propanamide]		< 0.1 µM
O=C(CCCn1c(=O)c2cccn2c2ccc(F)cc21)NC1CCCCC1 [Example 1-35]	0.1 to 0.5 µM	
O=C(CCn1c(=O)c2cccn2c2ccc(F)cc21)Nc1ccncc1 [Example 3-18]	< 0.1 µM	
COC1CCN(C(=O)CCn2c(=O)c3cccn3c3ccc(F)cc32)C1 (centres unmarked) [Example 3-40]	< 0.1 µM	
O=C(CCCn1c(=O)c2cccn2c2ccc(F)cc21)NC1CCC(C(F)(F)F)CC1 (centres unmarked) [Example 1-39]	< 0.1 µM	
CC(C)NC(=O)CCCn1c(=O)c2cccn2c2ccc(F)cc21 [Example 1-27]	0.1 to 0.5 µM	
Cc1ccc(NC(=O)CCCn2c(=O)c3cccn3c3ccncc32)cc1 [Example 2-1, 4-(7-Oxo-2,8,11-triazatricyclo[7.4.0.0^2,6]trideca-1(9),3,5,10,12-pentaen-8-yl)-N-(p-tolyl)butanamide]	< 0.1 µM	
COc1ccc(NC(=O)CCCn2c(=O)c3cccn3c3ccccc32)nc1 [Example 5-5]		< 0.1 µM
COc1cccnc1NC(=O)CCn1c(=O)c2cccn2c2ccc(F)cc21 [Example 3-17]	< 0.1 µM	
COc1cncc(NC(=O)CCn2c(=O)c3cccn3c3ccc(F)cc32)c1 [Example 3-11]	< 0.1 µM	
O=C(CCn1c(=O)c2cccn2c2ccc(F)cc21)N1CCc2cnccc2C1 [Example 3-51]	< 0.1 µM	
COc1ncccc1NC(=O)CCn1c(=O)c2cccn2c2ccc(F)cc21 [Example 3-4]	< 0.1 µM	
O=C(CCCn1c(=O)c2cccn2c2ccc(F)cc21)Nc1ccc(Cl)cc1 [Example 1-26]	< 0.1 µM	
COc1ccccc1NC(=O)CCn1c(=O)c2cccn2c2ccc(F)cc21 [Example 3-16]	< 0.1 µM	
O=C(CCCn1c(=O)c2cccn2c2ccc(F)cc21)NCCc1cccnc1 [Example 1-18]	< 0.1 µM	
Cc1ccc(NC(=O)CCn2c(=O)c3cccn3c3ccc(F)cc32)cn1 [Example 3-8]	< 0.1 µM	

SMILES	IC50 [1]	IC50
COc1ccc(N(C)C(=O)CCCn2c(=O)c3cccn3c3ccc(F)cc32)cc1 [Example 1-23]	< 0.1 µM	
COc1ccnc(NC(=O)CCCn2c(=O)c3cccn3c3ccc(F)cc32)c1 [Example 1-44]	< 0.1 µM	
O=C(CCCn1c(=O)c2cccn2c2ccc(F)cc21)NCCc1ccccc1 [Example 1-20]	< 0.1 µM	
COc1ccccc1NC(=O)CCCn1c(=O)c2cccn2c2ccc(F)cc21 [Example 1-17]	< 0.1 µM	
O=C(CCCn1c(=O)c2cccn2c2ccc(F)cc21)N1CCc2ccccc2C1 [Example 1-8]	< 0.1 µM	
O=C(CCCn1c(=O)c2cccn2c2ccc(F)cc21)NC1CCCC1 [Example 1-28]	0.1 to 0.5 µM	
CC1CCC(N(C)C(=O)CCCn2c(=O)c3cccn3c3ccc(F)cc32)CC1 (centres unmarked) [Example 1-46]	< 0.1 µM	
COc1ccncc1NC(=O)CCn1c(=O)c2cccn2c2ccc(F)cc21 [Example 3-10]	< 0.1 µM	
O=C(CCn1c(=O)c2cccn2c2ccc(F)cc21)N1CCCCC1 [Example 3-1, 7-Fluoro-5-[3-oxo-3-(piperidin-1-yl)propyl]-4H,5H-pyrrolo[1,2-a]quinoxalin-4-one]	< 0.1 µM	
CCNC(=O)CCn1c(=O)c2cccn2c2ccc(F)cc21 [Example 3-38]	< 0.1 µM	
COc1cccc(NC(=O)CCn2c(=O)c3cccn3c3ccc(F)cc32)n1 [Example 3-7]	< 0.1 µM	
O=C(CCn1c(=O)c2cccn2c2ccc(F)cc21)N1Cc2cccnc2C1 [Example 3-55]	< 0.1 µM	
CN(C)C(=O)CCn1c(=O)c2cccn2c2ccc(F)cc21 [Example 3-36]	< 0.1 µM	
C[C@@H]1C[C@H](C)CN(C(=O)CCCn2c(=O)c3cccn3c3ccc(F)cc32)C1 [Example 1-2]	< 0.1 µM	
COc1ccc(NC(=O)CCCn2c(=O)c3cccn3c3ccc(F)cc32)cc1 [Example 1-12]	< 0.1 µM	

Reference: US11918662B2, “Heterocyclic compounds and imaging agents for imaging huntingtin protein” (CHDI Foundation, Inc., priority 2020, dated 2024)
